The text below walks through data of BindingDB's records for PubMed 38477709 (Washington University School of Medicine).

Structures are written as SMILES.

This test deals with Coagulation factor X (Homo sapiens, UniProt P00742). The experiment in a line: Inhibition of factor Xa (unknown origin) using Bz-lle-Glu-Gly-Arg-pNA as chromogenic substrate preincubated for 30 mins followed by substrate addition by absorbance based analysis.
Coagulation factor X, sequence (P00742 41-179 limits assumed): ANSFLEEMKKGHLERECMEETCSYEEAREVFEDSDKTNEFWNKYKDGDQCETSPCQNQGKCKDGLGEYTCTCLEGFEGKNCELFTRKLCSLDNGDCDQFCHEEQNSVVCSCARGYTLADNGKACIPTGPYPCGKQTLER
Coagulation factor X, sequence (P00742 235-488 limits assumed): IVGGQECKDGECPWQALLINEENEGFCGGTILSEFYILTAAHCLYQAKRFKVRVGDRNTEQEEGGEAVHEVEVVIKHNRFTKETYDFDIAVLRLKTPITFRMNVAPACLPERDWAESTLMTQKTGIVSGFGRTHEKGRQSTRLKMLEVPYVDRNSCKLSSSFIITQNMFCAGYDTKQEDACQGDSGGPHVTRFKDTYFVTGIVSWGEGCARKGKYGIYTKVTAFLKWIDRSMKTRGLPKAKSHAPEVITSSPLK

Molecule `CC(=O)N[C@H]1Cc2ccc(cc2)OCC=CCNC(=O)C[C@@H](C(=O)N[C@@H](CCCNC(=N)N)C(=O)c2nc3ccccc3s2)NC(=O)[C@H](CC(C)C)NC1=O` came in with an IC50 above 20 µM.

`CC(=O)N[C@H]1Cc2ccc(cc2)OCC=CCNC(=O)CC[C@@H](C(=O)N[C@@H](CCCNC(=N)N)C(=O)c2nc3ccccc3s2)NC(=O)[C@H](CC(C)C)NC1=O` displayed an IC50 above 20 µM.
